Assay results published in patent US9981950B2, “Triazoles as NR2B receptor inhibitors” (Janssen Pharmaceuticals, Inc., priority 2014, dated 2018).
pIC50: −log10 of the molar value.

Legend:
rat NR1/NR2B receptor [1] = target: T1, rat NR1/NR2B receptor (Rattus norvegicus (Rat), UniProt P35439+Q00960); assay: NR2B binding assay: inhibition of specific [3H]-Ifenprodil binding to the rat NR1/NR2B receptor; details: rat brain membranes, Hill-plot 2-parameter-model
How it was run: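 Nonspecific binding was defined with […] CP101.606, and bound radioactivity was separated by filtration over PEI-soaked filters. IC50 was fitted with a Hill-plot 2-parameter model.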

[2] = target: cloned human NR1/NR2B ion channels (Homo sapiens (Human), UniProt Q05586+Q13224); assay: HNR2BC: calcium influx assay on cloned human NR1/NR2B ion channels expressed in HEK cells; type: cell-based; details: HEK cells hNR1/NR2B, 100 μM glutamate + 100 μM glycine, 3 parameter plot
Protocol: HNR2BC: Effects of Test Articles on Cloned Human NR1/NR2B Ion Channels Expressed in Mammalian Cells
The ability of test compounds to act as an antagonist of NR1/NR2B were evaluated with a calcium influx assay (Calcium 5 Assay Kit, Molecular Devices).
For the antagonist assessment, NR1/NR2B was activated with the positive control agonist (Mg^2+-free HBPS+100 μM glutamic acid+100 μM glycine). The effect of each test article to inhibit the signal was examined after agonist stimulation and compared to the positive control antagonist (MK-801).
A HEK cell line, stable transfected with hNR1/NR2B was used. This tetracycline inducible cell line is transfected with GRIN1 (GeneBank accession number NM 007327.2) and GRIN2B (GeneBank accession number NM_000834.3.). The cells were cultured in cell culture flasks with DMEM/F12 supplemented with 10% FCS, 1% PenStrep and a selection of additional antibiotics.
Forty-Eight (48) hours before the assay the cells were plated into 96-well black well, flat clear bottom microtiter plates at a density of 50000 cells/well. Twenty-Four (24) hours later the receptor expression was induced by the addition of 1 μg/ml tetracycline in the presence of 2 mM ketamine and 200 μM 7-CKA. After 24 h of receptor induction the plates were used for the assay.
The medium was removed and the cells were loaded with 200 μl loading buffer (Molecular Devices) in Mg2+-free HBPS containing 100 μM 7-CKA at 37° C. for one (1) hour.
The test compounds were then solubilized in 100% DMSO and diluted to yield eight (8) different concentrations in 100% DMSO. A 96 well drug plate was prepared by diluting with water and glycine/glutamate to a 5-fold of final test concentration. Fluorescence intensity of the cells in the plate was measured in a FlexStation using an excitation wavelength of 485 nm and an emission wavelength of 525 nm. Twenty (20) seconds after starting the recordings the compounds together with the agonists glycine (100 μM) and glutamate (100 μM) were added into the wells and the fluorescence measured for ninety (90) seconds in summary.
The IC50 values provided in the paragraph below were determined using a 3 parameter plot.

rat NR1/NR2B receptor [3] = target: T1, rat NR1/NR2B receptor; assay: RRNR2BB: inhibition of specific binding to the rat NR1/NR2B receptor; details: [3H]-Ifenprodil binding, rat brain membranes, Hill-plot 2-parameter-model
How it was run: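 Washed membranes from male Wistar rat forebrain (whole brain minus cerebellum) in 5 mM Tris/1 mM EDTA pH 7.4 used in ifenprodil-site binding, 60 min at 4° C. Nonspecific binding defined with […] CP101.606; bound separated by filtration on PEI-soaked filters. IC50 from Hill plot, 2-parameter model.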

T1 sequence (Q00960 27-1482, other chains not shown): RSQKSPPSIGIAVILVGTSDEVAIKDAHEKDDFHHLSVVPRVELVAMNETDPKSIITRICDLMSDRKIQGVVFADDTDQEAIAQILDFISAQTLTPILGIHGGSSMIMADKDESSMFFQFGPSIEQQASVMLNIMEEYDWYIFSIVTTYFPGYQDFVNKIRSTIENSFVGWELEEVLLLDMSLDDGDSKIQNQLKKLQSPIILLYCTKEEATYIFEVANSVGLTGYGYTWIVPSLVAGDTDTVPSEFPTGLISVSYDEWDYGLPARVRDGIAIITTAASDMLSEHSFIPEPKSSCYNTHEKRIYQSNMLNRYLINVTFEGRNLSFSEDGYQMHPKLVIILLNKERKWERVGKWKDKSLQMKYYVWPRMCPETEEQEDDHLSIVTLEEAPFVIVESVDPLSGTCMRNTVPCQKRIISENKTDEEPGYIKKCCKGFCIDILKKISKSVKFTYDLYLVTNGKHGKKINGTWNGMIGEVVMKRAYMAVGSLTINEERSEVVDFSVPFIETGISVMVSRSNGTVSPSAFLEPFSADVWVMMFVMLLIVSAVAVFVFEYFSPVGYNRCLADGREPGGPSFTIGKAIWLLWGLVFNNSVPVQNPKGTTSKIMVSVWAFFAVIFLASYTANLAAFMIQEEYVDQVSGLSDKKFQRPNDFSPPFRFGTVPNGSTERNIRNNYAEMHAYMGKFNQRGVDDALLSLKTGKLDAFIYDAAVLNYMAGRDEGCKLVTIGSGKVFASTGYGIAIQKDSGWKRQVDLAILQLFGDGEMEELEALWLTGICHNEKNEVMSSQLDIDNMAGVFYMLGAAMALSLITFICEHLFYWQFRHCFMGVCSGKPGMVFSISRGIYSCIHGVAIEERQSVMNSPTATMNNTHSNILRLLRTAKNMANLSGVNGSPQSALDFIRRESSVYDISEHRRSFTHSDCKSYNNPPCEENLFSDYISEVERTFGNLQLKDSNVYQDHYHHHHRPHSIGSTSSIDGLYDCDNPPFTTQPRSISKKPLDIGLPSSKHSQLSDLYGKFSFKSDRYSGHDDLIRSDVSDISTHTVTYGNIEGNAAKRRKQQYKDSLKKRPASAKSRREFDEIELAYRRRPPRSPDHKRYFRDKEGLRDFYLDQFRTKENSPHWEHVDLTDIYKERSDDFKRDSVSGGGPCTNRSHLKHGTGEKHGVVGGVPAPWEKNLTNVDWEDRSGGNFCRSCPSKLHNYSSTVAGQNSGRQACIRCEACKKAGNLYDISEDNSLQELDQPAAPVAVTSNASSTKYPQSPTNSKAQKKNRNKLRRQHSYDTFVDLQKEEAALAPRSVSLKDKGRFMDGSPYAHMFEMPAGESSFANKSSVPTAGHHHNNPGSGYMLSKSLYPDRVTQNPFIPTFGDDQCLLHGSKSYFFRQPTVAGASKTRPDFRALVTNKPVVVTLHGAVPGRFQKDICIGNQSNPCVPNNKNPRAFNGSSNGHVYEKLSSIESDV
cloned human NR1/NR2B ion channels, sequence (Q13224 27-1484, other chains not shown): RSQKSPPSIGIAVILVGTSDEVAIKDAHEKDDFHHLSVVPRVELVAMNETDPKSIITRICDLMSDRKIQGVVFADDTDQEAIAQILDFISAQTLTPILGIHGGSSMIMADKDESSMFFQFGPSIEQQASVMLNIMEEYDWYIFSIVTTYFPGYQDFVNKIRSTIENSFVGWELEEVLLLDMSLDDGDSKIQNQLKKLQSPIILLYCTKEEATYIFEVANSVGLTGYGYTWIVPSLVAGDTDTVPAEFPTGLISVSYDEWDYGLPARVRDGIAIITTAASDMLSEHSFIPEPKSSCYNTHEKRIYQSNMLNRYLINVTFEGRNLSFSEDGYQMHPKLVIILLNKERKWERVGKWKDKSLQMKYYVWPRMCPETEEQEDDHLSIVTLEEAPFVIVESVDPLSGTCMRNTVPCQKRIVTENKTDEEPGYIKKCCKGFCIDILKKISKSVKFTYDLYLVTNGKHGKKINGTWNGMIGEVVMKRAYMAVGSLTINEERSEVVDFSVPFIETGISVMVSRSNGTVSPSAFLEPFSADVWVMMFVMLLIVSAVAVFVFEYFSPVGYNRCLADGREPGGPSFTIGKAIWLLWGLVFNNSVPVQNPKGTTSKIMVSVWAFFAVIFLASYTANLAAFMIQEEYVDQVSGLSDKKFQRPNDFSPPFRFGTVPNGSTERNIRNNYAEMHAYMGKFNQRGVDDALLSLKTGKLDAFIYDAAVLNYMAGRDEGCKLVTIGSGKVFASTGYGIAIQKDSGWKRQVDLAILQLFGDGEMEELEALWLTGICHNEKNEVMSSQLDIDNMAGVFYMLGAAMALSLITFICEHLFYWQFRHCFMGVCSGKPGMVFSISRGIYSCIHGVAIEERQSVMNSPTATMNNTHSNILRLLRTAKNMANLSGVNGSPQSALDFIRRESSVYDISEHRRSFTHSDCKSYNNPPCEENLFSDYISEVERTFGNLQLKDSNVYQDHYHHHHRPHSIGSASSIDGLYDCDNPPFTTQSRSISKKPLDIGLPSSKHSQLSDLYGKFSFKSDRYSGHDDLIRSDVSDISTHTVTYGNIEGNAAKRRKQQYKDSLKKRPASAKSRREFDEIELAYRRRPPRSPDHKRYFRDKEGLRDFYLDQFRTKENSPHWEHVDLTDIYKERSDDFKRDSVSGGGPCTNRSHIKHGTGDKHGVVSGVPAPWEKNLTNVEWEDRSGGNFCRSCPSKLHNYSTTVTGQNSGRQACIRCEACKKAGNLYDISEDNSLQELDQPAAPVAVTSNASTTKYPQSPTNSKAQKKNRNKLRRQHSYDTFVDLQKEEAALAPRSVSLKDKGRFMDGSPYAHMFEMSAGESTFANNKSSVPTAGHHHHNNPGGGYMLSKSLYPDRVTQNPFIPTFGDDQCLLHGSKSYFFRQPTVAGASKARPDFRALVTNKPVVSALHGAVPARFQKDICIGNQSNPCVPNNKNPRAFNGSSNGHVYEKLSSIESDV

Structure (SMILES) | pIC50 (rat NR1/NR2B receptor [1]) | pIC50 [2] | pIC50 (rat NR1/NR2B receptor [3])
OCCc1nccn1Cc1cn(-c2ccc(F)c(OC(F)F)c2)nn1 [Example 101, 1-(3-Difluoromethoxy-4-fluoro-phenyl)-4-[2-(2-hydroxy-ethyl)-imidazol-1-ylmethyl]-1H-[1,2,3]triazole] | 8.37 | 5.78 | 8.37
CC(C)c1nccn1Cc1cn(-c2ccc(Cl)cc2)nn1 [Example 23, 1-(4-Chloro-phenyl)-4-(2-isopropyl-imidazol-1-ylmethyl)-1H-[1,2,3]triazole] | 7.11 | 4.76 | 7.11
Cn1nccc1Cc1cn(-c2ccc(F)c(Cl)c2)nn1 [Example 109, 1-(3-Chloro-4-fluoro-phenyl)-4-(2-methyl-2H-pyrazol-3-ylmethyl)-1H-[1,2,3]triazole] | 5.36 | 3.96 | 5.36
Nc1nccn1Cc1cn(-c2ccc(F)c(C(F)F)c2)nn1 [Example 113B, 4-(2-amino-imidazol-1-ylmethyl)-1-(4-fluoro-3-difluoromethyl-phenyl)-1H-[1,2,3]triazole] | 9.32 | 6.18 | 9.32
CC(F)(F)c1cc(-n2cc(Cn3ccnc3N)nn2)ccc1F [Example 114] | 9.29 | 5.63 | 9.29
CC(C)c1nccn1Cc1cn(-c2ccc(F)c(C(F)F)c2)nn1 [Example 84, 1-(3-Difluoromethyl-4-fluoro-phenyl)-4-(2-isopropyl-imidazol-1-ylmethyl)-1H-[1,2,3]triazole] | 7.96 | 5.38 | 7.96
Fc1ccc(-n2cc(Cn3ccnc3C3CC3)nn2)cc1C(F)F [Example 82, 4-(2-Cyclopropyl-imidazol-1-ylmethyl)-1-(3-difluoromethyl-4-fluoro-phenyl)-1H-[1,2,3]triazole] | 7.79 | 5.31 | 7.79
Cc1nccn1Cc1cn(-c2ccc(Cl)c(OC(F)F)c2)nn1 [Example 93, 1-(4-Chloro-3-difluoromethoxy-phenyl)-4-(2-methyl-imidazol-1-ylmethyl)-1H-[1,2,3]triazole] | 8.92 | 6.39 | 8.92
Cc1nccn1Cc1cn(-c2ccc(F)c(C(F)F)c2)nn1 [Example 81, 1-(3-Difluoromethyl-4-fluoro-1-phenyl)-4-(2-methyl-imidazol-1-ylmethyl)-1H-[1,2,3]triazole] | 8.42 | 5.42 | 8.42
Nc1nccn1Cc1cn(-c2ccc(Cl)c(C(F)F)c2)nn1 [Example 113A, 4-(2-amino-imidazol-1-ylmethyl)-1-(4-chloro-3-difluoromethyl-phenyl)-1H-[1,2,3]triazole] | 9.19 | 6.08 | 9.19
